According to US9102648B1, “Bioavailable diacylhydrazine ligands for modulating the expression of exogenous genes via an ecdysone receptor complex” (Intrexon Corporation, priority 2003, dated 2015):

Columns and labels:
[1] = biological target: T1, Bombyx mori EcR (VP16 fusion, CVBE switch construct) (Bombyx mori, UniProt P49881); assay: Z3 Assay (HEK-293 cells with CVBE and 6XEcRE LacZ, β-galactosidase reporter); details: for Fold Induction, Z3 Assay, 3.3 uM: 3.3 uM ligand; for Fold Induction, Z3 Assay, 3.3 uM / Fold Induction, Z3 Assay, 33 uM: ligand treated / DMSO treated cells; for Fold Induction, Z3 Assay, 3.3 uM / Fold Induction, Z3 Assay, 33 uM / EC50: average of two wells; for Fold Induction, Z3 Assay, 33 uM: 33 uM ligand; for Z3 assay Rel Max FI: maximum fold induction at any concentration relative to that of GS-E ligand; for Z3 assay Rel Max FI / EC50: HEK-293 Z3 cells; for EC50: read-out: Z3 assay EC50, β-galactosidase reporter
T1 sequence (P49881 86-606): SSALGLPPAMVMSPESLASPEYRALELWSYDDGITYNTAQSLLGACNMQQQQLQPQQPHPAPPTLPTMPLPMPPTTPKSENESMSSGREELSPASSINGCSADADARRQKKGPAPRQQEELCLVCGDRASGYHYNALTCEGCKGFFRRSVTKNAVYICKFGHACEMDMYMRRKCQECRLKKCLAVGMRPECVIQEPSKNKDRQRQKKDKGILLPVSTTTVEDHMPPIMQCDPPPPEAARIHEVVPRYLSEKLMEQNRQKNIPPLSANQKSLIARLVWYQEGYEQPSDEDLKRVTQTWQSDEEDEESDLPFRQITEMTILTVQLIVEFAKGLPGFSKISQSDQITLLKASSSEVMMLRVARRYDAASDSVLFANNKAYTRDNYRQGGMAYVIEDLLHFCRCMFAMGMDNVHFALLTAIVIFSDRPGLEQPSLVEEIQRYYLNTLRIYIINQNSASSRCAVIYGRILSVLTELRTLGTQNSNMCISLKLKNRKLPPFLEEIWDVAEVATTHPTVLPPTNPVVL
T1 sequence (P19793 1-462 partner): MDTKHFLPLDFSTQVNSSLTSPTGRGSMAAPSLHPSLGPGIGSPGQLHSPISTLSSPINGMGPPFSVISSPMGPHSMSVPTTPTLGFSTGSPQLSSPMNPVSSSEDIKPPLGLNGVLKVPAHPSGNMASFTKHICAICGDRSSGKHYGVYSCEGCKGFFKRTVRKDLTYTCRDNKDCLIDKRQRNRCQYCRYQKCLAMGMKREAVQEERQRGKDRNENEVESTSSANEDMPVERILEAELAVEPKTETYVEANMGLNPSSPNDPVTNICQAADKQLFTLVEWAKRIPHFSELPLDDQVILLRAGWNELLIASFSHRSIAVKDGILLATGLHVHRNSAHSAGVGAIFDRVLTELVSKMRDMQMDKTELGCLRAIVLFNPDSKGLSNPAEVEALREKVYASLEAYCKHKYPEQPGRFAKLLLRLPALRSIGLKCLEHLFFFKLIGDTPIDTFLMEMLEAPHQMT
Source text: Dr. F. Gage provided a population of stably transformed cells containing CVBE and 6XEcRE as described in Suhr, S. T., Gil, E. B., Senut M. C., Gage, F. H. (1998) Proc. Natl. Acad. Sci. USA 95, 7999-804. Human 293 kidney cells, also referred to as HEK-293 cells, were sequentially infected with retroviral vectors encoding first the switch construct CVBE, and subsequently the reporter construct 6XEcRE Lac Z. The switch construct contained the coding sequence for amino acids 26-546 from Bombyx mori EcR (BE) (Iatrou) inserted in frame and downstream of the VP16 transactivation domain (VBE). A synthetic ATG start codon was placed under the control of cytomegalovirus (CVBE) immediate early promoter and flanked by long terminal repeats (LTR). The reporter construct contained six copies of the ecdysone response element (EcRE) binding site placed upstream of LacZ and flanked on both sides with LTR sequences (6XEcRE).
Dilution cloning was used to isolate individual clones. Clones were selected using 450 ug/mL G418 and 100 ng/mL puromycin. Individual clones were evaluated based on their response in the presence and absence of test ligands.
Human 293 kidney cells stably transformed with CVBE and 6XEcRE LacZ were maintained in Minimum Essential Medium (Mediates, 10-010-CV) containing 10% FBS (Life Technologies, 26140-087), […] G418 (Mediates, 30-234-CR), and […] (Sigma, P-7255), at 37° C. in an atmosphere containing 5% CO2 and were subculture when they reached 75% confluence.
Z3 cells were seeded into 96-well tissue culture plates at a concentration of 2.5×10^3 cells per well and incubated at 37° C. in 5% CO2 for twenty-four hours. Stock solutions of ligands were prepared in DMSO. Ligand stock solutions were diluted 100 fold in media and 50 μL of this diluted ligand solution ([…]) was added to cells. The final concentration of DMSO was maintained at 0.03% in both controls and treatments.
Reporter gene expression was evaluated 48 hours after treatment of cells, β-galactosidase activity was measured using Gal Screen™ bioluminescent reporter gene assay system from Tropix (GSY1000). Fold induction activities were calculated by dividing relative light units (“RLU”) in ligand treated cells with RLU in DMSO treated cells. Luminescence was detected at room temperature using a Dynex MLX microtiter plate luminometer.
Flanking both constructs are long terminal repeats, G418 and puromycin are selectable markers, CMV is the cytomegalovirus promoter, VBE is coding sequence for amino acids 26-546 from Bombyx mori EcR inserted downstream of the VP16 transactivation domain, 6×EcRE is six copies of the ecdysone response element, lacZ encodes for the reporter enzyme β-galactosidase.
(§1) Each assay was conducted in two separate wells, and the two values were averaged. Fold inductions were calculated by dividing relative light units (“RLU”) in ligand treated cells with RLU in DMSO treated cells. EC50s were calculated from dose response data using a three-parameter logistic model.

[2] = biological target: GAL4 DBD-CfEcR(DEF)/VP16AD-MmRXRE (Choristoneura fumiferana, UniProt O77240); assay: 13B3 Assay (CHO stable cell line, luciferase reporter); details: for Fold Induction, 13B3 Assay, 33 uM: 33 uM ligand
Source text: GAL4 DBD-CfEcR(DEF)/VP16AD-MmRXRE:
The wild-type D, E, and F domains from spruce budworm Choristoneura fumiferana EcR (“CfEcR-DEF”; SEQ ID NO: 1) were fused to a GALA DNA binding domain (“Gal4DBD1-147”; SEQ ID NO: 2) and placed under the control of the SV40e promoter of pM vector (PT3119-5, Clontech, Palo Alto, Calif.). The D and E domains from Mus Musculus RXR (“MmRXR-DE”; SEQ ID NO: 11) were fused to the transactivation domain from VP16 (“VP16AD”; SEQ ID NO: 6) and placed under the control of the SV40e promoter of the pVP16 vector (PT3127-5, Clontech, Palo Alto, Calif.).
CHO cells were transiently transfected with transcription cassettes for GAL4 DBD-CJEcR(DEF) and for VP16AD-MmRXRE controlled by SV40e promoters. Stably transfected cells were selected using Hygromycin. Individually isolated CHO cell clones were transiently transfected with a GALA RE-luciferase reporter (pFR-Luc, Stratagene, La Jolla, Calif.). The 13B3 clone was selected using Zeocin.
(§2) Cells were trypsinized and diluted to a concentration of 2.5×10^4 cells mL. 100 μL of cell suspension was placed in each well of a 96 well plate and incubated at 37° C. under 5% CO2 for 24 h. Ligand stock solutions were prepared in DMSO and diluted 300 fold for all treatments. Dose response testing consisted of 8 concentrations ranging from 33 μM to 0.01 μM.
(§3) Luciferase reporter gene expression was measured 48 h after cell treatment using Bright-Glo™ Luciferase Assay System from Promega (E2650). Luminescence was detected at room temperature using a Dynex MLX microtiter plate luminometer.
as §1

[3] = biological target: GAL4 DBD (1-147)-CfEcR(DEF)/VP16AD-βRXREF-LmUSPEF (Choristoneura fumiferana, UniProt O77240); assay: cell-based
Source text: GAL4 DBD (1-147)-CfEcR(DEF)/VP16AD-βRXREF-LmUSPEF:
The wild-type D, E, and F domains from spruce budworm Choristoneura fumiferana EcR (“CfEcR-DEF”; SEQ ID NO: 1) were fused to a GAL4 DNA binding domain (“Gal4DBD1-147”; SEQ ID NO: 2) and placed under the control of a phosphoglycerate kinase promoter (“PGK”; SEQ ID NO: 3). Helices 1 through 8 of the EF domains from Homo sapiens RXRβ (“HsRXRβ-EF”; nucleotides 1-465 of SEQ ID NO: 4) and helices 9 through 12 of the EF domains of Locusta migratoria Ultraspiracle Protein (“LmUSP-EF”; nucleotides 403-630 of SEQ ID NO: 5) were fused to the transactivation domain from VP16 (“VP16AD”; SEQ ID NO: 6) and placed under the control of an elongation factor-1α promoter (“EF-1α”; SEQ ID NO: 7). Five consensus GAL4 response element binding sites (“5XGAL4RE”; comprising 5 copies of a GAL4RE comprising SEQ ID NO: 8) were fused to a synthetic TATA minimal promoter (SEQ ID NO: 9) and placed upstream of the luciferase reporter gene (SEQ ID NO: 10).
CHO cells were transiently transfected with transcription cassettes for GAL4 DBD (1-147) CJEcR(DEF) and for VP16AD βRXREF-LmUSPEF controlled by ubiquitously active cellular promoters (PGK and EF-la, respectively) on a single plasmid. Stably transfected cells were selected by Zeocin resistance. Individually isolated CHO cell clones were transiently transfected with a GAL4 RE-luciferase reporter (pFR Luc). 27-63 clone was selected using Hygromycin.
as §2, with “[…]” for “33 μM”
as §3, §1

[4] = RLU ligand treated / RLU DMSO treated cells, average of two wells
[5] = 3.3 uM ligand, RLU ligand treated / RLU DMSO treated cells, average of two wells

Structure (SMILES)	Fold Induction, Z3 Assay, 3.3 uM [1]	Fold Induction, Z3 Assay, 33 uM [1]	Z3 assay Rel Max FI [1]	EC50 [1]	Fold Induction, 13B3 Assay, 33 uM [2, 4]	Fold Induction, 13B3 Assay, 3.3 uM [2, 5]	13B3 assay Rel Max FI ([2]; maximum fold induction at any concentration relative to that of GS-E ligand, CHO 13B3 cells)	EC50 ([2]; read-out: 13B3 EC50, CHO 13B3 stable cell line, luciferase reporter, 48 h, average of two wells)	Fold Induction, 27-63 Assay, 3.3 uM [3, 5]	Fold Induction, 27-63 Assay, 33 uM ([3]; 33 uM ligand, RLU ligand treated / RLU DMSO treated cells, average of two wells)	27-63 assay Rel Max FI ([3]; maximum fold induction at any concentration relative to that of GS-E ligand, CHO 27-63 cells)	EC50 ([3]; read-out: 27-63 assay EC50, CHO 27-63 stable cell line, luciferase reporter, average of two wells)	fold induction at 33 µM ([2]; read-out: Fold Induction, 13B3 Assay, 33 uM)
Cc1cc(C)cc(C(=O)N(NC(=O)c2ccc3c(c2)OC(C)CO3)C(C)(C)C)c1 (racemic) [RG-101509]	1303	328	0.882	1.18 µM	1144								
CCCCC(CC)N(NC(=O)c1cccc(C)c1C)C(=O)c1ccccc1 (racemic) [RG-103361]	171	244	0.938	0.526 µM	2262	504	0.758	28 µM					
COc1cccc(C(=O)NN(C(=O)c2cc(Cl)nc(Cl)c2)C(C)(C)C)c1C [RG-100394]	1339	11		1.22 µM	178								
COc1cc(F)ccc1C(=O)N(NC(=O)c1cccc(OC)c1C)C(C)(C)C [RG-100524]	991	146	1.002	0.263 µM	1211								
CCc1c(C(=O)NN(C(=O)c2ccc(F)cc2)C(C)(C)C)ccc2c1OCOC2 [RG-100574]		389		1.12 µM					151	21	0.371	4 µM	
COc1cccc(C(=O)NN(C(=O)c2cc(F)ccc2F)C(C)(C)C)c1C [RG-100603]		453			570								
CC(C)(C)N(NC(=O)c1c(F)ccc(F)c1F)C(=O)c1ccc(F)cc1Cl [RG-100620]	710	428	0.869	2.4 µM	13982								
CCc1c(OC)cccc1C(=O)NN(C(=O)c1cc(C)nc(Cl)c1)C(C)(C)C [RG-100667]	1480	238	0.890	0.347 µM	1191								
CCc1c(C(=O)NN(C(=O)c2ccccc2OC)C(C)(C)C)ccc2c1OCO2 [RG-100698]	1089	591	1.025	1 µM	434								
CC(=O)Oc1cccc(C(=O)NN(C(=O)c2cc(C)cc(C)c2)C(C)(C)C)c1C [RG-100749]	874	145	0.951	2.69 µM	288								
COc1cc(OC)cc(C(=O)N(NC(=O)c2cccc(C)c2C)C(C)(C)C)c1 [RG-100764]	915	369	0.900	2.34 µM	3814								
CCc1c(OC)cccc1C(=O)NN(C(=O)c1ccc2ncn(C(c3ccccc3)(c3ccccc3)c3ccccc3)c2c1)C(C)(C)C [RG-115718, 3-trityl-3H-benzoimidazole-5-carboxylic acid N-tert-butyl-N′-(2-ethyl-3-methoxy-benzoyl)-hydrazide]													2
